# Assay results taken from paper PMC12067128, “Macrocyclization: Enhancing Drug-like Properties of Discoidin Domain Receptor Kinase Inhibitors” (ACS Medicinal Chemistry Letters, 2025).
# Legend:
# DDR1 = molecular target: T1, DDR1 (Homo sapiens, UniProt Q08345); experiment: PathHunter U2OS DDR1 Functional Assay (DDR1 cellular assay); type: cell-based; conditions: U2OS PathHunter cells, collagen II stimulation; read-out: Cell DDR1 IC50
# T1 construct: ProLink™ (PK) tagged full-length DDR1b; host or cells: U2OS human osteosarcoma cells (PathHunter U2OS DDR1)
# Description: page 17: In vitro Biology DDR1 cellular assay The activity of Discoidin Domain-containing Receptor protein kinase (DDR) inhibitors was determined using the PathHunter® U2OS DDR1 Functional Assay which employs Enzyme Fragment Complementation (EFC) technology, where the β-galactosidase (β-gal) enzyme is split into two fragments, ProLink (PK) and Enzyme Acceptor (EA). Independently these fragments […] β-gal enzyme. In the PathHunter® U2OS DDR1 Functional Assay, the U2OS human osteosarcoma cell line is modified to co-express a ProLinkTM (PK) tagged full-length DDR1b and an Enzyme Acceptor (EA) tagged SH2 domain. Collagen II, as a ligand, induces activation of DDR1b which results in cross-phosphorylation. The SH2-EA fusion protein then specifically binds the phosphorylated receptor resulting in complementation of the two fragments of β-gal and formation of a functional enzyme. β-gal activity is then quantitatively detected using a chemiluminescent substrate. PathHunter® Human U2OS DDR1 cells were prepared in AssayCompleteTM Cell Plating 16 Reagent (DiscoverX 93-0563R16A) and plated at 5000 cells/well in a 384-well white, clear-bottom, sterile plate (ThermoFisher 142762) and incubated for 90 minutes at 37 °C, 5% CO2. Test compounds were serially diluted from a top concentration of 10 mM (1000x final assay concentration) directly in a 384-well low-volume polypropylene plate (Greiner bio-one 784201) using an Echo 555 acoustic liquid handler (Labcyte). Test compounds were diluted in AssayCompleteTM Cell Plating 16 Reagent then added to cells using an Integra ViaFlow384 electronic reagent dispenser and pre-incubated at 37 °C, 5% CO2 for 30 minutes. Following compound pre-incubation, the cells were stimulated with 20 μg/ml Bovine Type II Collagen (DiscoverX 92-1090) with incubation for 20 hours at 37 °C, 5% CO2. Next, PathHunter Detection Reagent (DiscoverX 93-[…]) was added to the cells, incubated for 60 minutes at 25 °C in the dark, prior to capturing the chemiluminescent signal on a PHERAstar (BMG LABTECH). The percentage of inhibition was calculated for each concentration of compound using a 0.1% DMSO vehicle/Collagen II control response as a 0% inhibition and a 10 nM Dasatinib/Collagen II positive 17 page 18: control response as a 100% inhibition. The final assay concentration of the top of the test compound CRC was 10 μM. 18
# Kinetic solubility = type: physicochemical
# Description: Using a stock solution of test compound in 100% DMSO, duplicate dilutions were prepared at a nominal concentration of 200 µM in 0.1 M phosphate buffered saline (PBS) at pH 7.4, with a 2% final DMSO content. Test compound calibration standards were prepared at 200 µM and 10 µM in 100%
# DMSO. The PBS and DMSO dilutions were equilibrated on a shaking platform at room temperature for two hours prior to filtration using a Multiscreen HTS solubility filter plate (Millipore). Filtrates were analysed by LC-UV-MS and the concentration of compound in PBS filtrate determined by comparing the UV absorbance peak with that of the two DMSO calibration standards. Mass spectrometry will be used to confirm the presence of the expected molecular ion in the UV peak measured. The effective range of the assay is 5 – 200 µM. […]
# [1] = Microsomes stability (clearance in human microsomes); type: in vitro ADME; conditions: liver microsomes, pH 7.4, 0.8 mg protein/mL, 1 mM NADPH, 37 °C, read-out: CLint h mic (clearance in human microsomes)
# Description: values in Caco-2 assay were: <10 nm/s = low level; 10-50 nm/s = medium level; >50 nm/s = high […]
# Test compounds were incubated, in duplicate, at the concentration of 1 μM with liver microsomes (0.8 mg protein/mL) in Dulbecco’s buffer (pH 7.4) at 37 °C in the presence of 1 mM NADPH. At different time points (0, 5, 10, 20, 30, and 60 min), 50 μL aliquots of the incubates were taken, added with 80 μL of ice-cold acetonitrile, and 20 μL of 1 μM warfarin in acetonitrile (injection check) to stop the reaction, and samples were centrifuged. The supernatants were analyzed by LC−MS/MS for unchanged compounds. Test compounds were incubated with liver microsomes in Dulbecco’s buffer in the absence of NADPH for 0 and 60 min, as control. Midazolam at the concentration of 1 μM, was incubated with microsomes as positive control for phase I activity of microsomes. Control samples were processed as test compound samples.
# [2] = ChromLogD chromatographic lipophilicity; type: physicochemical; conditions: C18 column, pH 7.4
# Description: The chromatographic method was based on the differential retention times of test compounds on a C18 column (Luna C18(2), 30 x 2mm, […], 100 Å) under controlled liquid chromatography conditions, comparing retention times with those of standards (Benzyl Alcohol, p-Nitrophenol, Bromobenzene, Anthracene) with known log D values. Stock solutions (10 mM in DMSO) of test compounds were diluted to a final concentration of 1 mM. The mobile phases consisted of A (20mM Ammonium Acetate buffered to pH 7.4 with ammonia hydroxide) and B (ACN). The LC gradient profile was the following: a linear increase to 90% B during 0.0 to 1.3 min, hold at 90 % B during 1.3 to 1.53 min then back to 0.0% B from 1.53 to 1.60 min, hold at 0% B until the end of the run (2.00 min). 1 μL of the sample volume was injected, using a flow rate of 0.5 mL/min and a column temperature of 40°C. All compounds were detected by UPLC/MS analysis using a a Waters ACQUITY UPLC equipped with a Photo Diode Array (PDA) detector coupled with a Waters ACQUITY QDa single quadrupole mass spectrometer with an Electrospray ionization (ESI) source.
# The retention times were obtained by processing data in Waters Openlynx. The standards are then plotted in excel and the best fit line was used as the basis for calculating the unknown LogD values from the retention times of the peaks obtained.
# [3] = BRlogD chromatographic lipophilicity; type: physicochemical; conditions: XBridge Shield RP18, pH 7.0, 60% acetonitrile
# Description: The original method was described in a previous paper.e Briefly, a HPLC Thermo Fisher Scientific Dionex Ultimate 3000 instrument equipped with a Low-Pressure Mixing Gradient Pump LPG-3400 SD, ACC-3000 autosampler with termostatable column compartment, a DAD-3000 RS Detector and Chromeleon Data System Version 7.2.10 was used. Deionized water and HPLC grade acetonitrile were used throughout. The mobile phases consisted of 20 mM ammonium acetate at pH 7.0 and acetonitrile 60% v/v. Samples were dissolved in a 1:1 mixture of buffer/acetonitrile in the concentration range of 50–100 ug/mL. A 10uL volume of each solution was injected at 30°C and flow rate was 1 mL/min. The dead time, t0, was determined by monitoring the baseline disturbance.
# retention time (tR) was measured on a XBridgeTM Shield RP18 (Waters, 5cm x 4.6 mm, 5 µm particle size, 130Å pore size). Isocratic log k’ (capacity factor k’ = (tR - t0)/t0) values were measured. The relationship between log D and log k’60 has been determined previously and is reported below (Eq.
# We termed this log D as BRlogD.
# [4] = log kW IAM (immobilized artificial membrane chromatography); type: physicochemical; conditions: lipophilicity descriptor, phospholipid interaction
# Description: (§1) Lipophilicity has been obtained in four different systems. BRlogD and ChromlogD are chromatographic surrogates of log Doct and, despite showing different values, are linearly correlated (Figure S4). Log k′ 80 PLRP-S is a surrogate of log Dtol. Log kw ^IAM mimics the interaction between the compounds and the phospholipids of membranes. The combination of the experimental lipophilicity descriptors is essential to evaluate lipophilicity in different regions of the membrane bilayer. This complete lipophilicity profile may give an idea of the permeability potential of poorly soluble compounds for which standard permeability measurements are unreliable. […] This is supported by its low IC50 value in the cell-based assay.
# [5] = log k'80 PLRP-S chromatographic descriptor; type: physicochemical; conditions: surrogate of log Dtol
# Description: as §1
# [6] = Δlog kW IAM polarity descriptor; type: physicochemical; conditions: polarity in aqueous medium
# Description: (§2) Polarity is quantified by two descriptors: EPSA and Δlog kw ^IAM. The first is measured in an almost fully nonpolar environment, and the second describes polarity in an aqueous medium. […] This is also in line with the higher solubility of KIMCs over 1.
# EPSA polarity descriptor = type: physicochemical; conditions: almost fully nonpolar environment; polarity in nonpolar environment
# Description: as §2
# [7] = Chamelogk chameleonicity descriptor; type: physicochemical; conditions: >0.6 = chameleons, <0.6 = non-chameleons
# Description: Finally, chameleonicity was measured with the recently described Chamelogk method (Table ), where 0.6 is the threshold value to distinguish chameleons from non-chameleons.
# T1 sequence (Q08345 19-913): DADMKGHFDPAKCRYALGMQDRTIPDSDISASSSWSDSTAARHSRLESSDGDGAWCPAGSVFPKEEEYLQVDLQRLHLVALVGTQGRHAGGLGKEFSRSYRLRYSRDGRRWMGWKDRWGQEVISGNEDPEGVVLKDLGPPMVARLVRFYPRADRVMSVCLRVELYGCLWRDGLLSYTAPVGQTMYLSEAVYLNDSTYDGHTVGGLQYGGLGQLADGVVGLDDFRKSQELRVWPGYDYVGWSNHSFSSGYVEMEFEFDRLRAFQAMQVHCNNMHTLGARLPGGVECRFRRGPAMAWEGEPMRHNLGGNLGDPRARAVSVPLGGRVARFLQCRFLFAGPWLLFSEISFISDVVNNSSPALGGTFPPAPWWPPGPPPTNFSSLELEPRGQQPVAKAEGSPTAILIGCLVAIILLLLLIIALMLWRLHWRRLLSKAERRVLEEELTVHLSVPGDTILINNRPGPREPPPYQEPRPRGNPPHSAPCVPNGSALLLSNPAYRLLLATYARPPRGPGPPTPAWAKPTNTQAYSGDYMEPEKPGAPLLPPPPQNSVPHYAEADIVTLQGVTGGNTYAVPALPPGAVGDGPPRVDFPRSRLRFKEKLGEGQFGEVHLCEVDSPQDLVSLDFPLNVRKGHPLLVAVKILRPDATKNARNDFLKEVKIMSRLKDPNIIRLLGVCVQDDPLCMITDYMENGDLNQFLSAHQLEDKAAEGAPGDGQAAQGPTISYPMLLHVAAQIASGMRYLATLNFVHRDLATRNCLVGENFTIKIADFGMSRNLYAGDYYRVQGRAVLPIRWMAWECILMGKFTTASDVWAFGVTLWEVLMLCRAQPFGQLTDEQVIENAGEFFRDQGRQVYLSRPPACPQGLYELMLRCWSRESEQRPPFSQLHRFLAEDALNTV
smiles,measurement,setting,value
Cc1ccc(C(=O)Nc2cccc(C(F)(F)F)c2)cc1-c1cc2nc(Nc3cnn(C)c3)ncc2[nH]1 [Compound 1],IC50,DDR1,3 nM
same,kinetic solubility (in words),Kinetic solubility,almost insoluble
same,solubility kinetic at 2 h,"Kinetic solubility; phosphate buffered saline, PBS pH 7.4, 2% DMSO, 2 h room temperature, assay range 5-200 µM, read-out: KS (kinetic solubility)",< 5 µM
same,"microsomal CLint at 1 h, 1 µM",[1],19 ± 2.1 µL/min/mg
same,chromatographic logD,[2],2.92
same,BRlogD,[3],3.36
same,log kW^IAM,[4],2.53
same,logk'80 PLRP-S,[5],-0.3
same,Δlog kW^IAM,[6],0.47
same,EPSA,EPSA polarity descriptor,106 A^2
same,Chamelogk,[7],0.99
